From patent US20210393645A1, “TREATMENT FOR PROGRESSIVE MULTIPLE SCLEROSIS” (UTI LIMITED PARTNERSHIP, priority 2016, published 2021)
“Also recorded” adds a separate entry of the source. Structures can show the parent of a compound that is named as a salt. Where two headings read alike, the source gives them in different places.

How the values were obtained:
human neurons [1] = assay: Live cell imaging of propidium iodide positive neurons challenged with FeSO4; format: cell-based; settings: FeSO4 50 μM, pre-treatment 1 h
Description: Neurons were prepared as described above. Directly after the addition of FeSO4 to healthy neurons, the live cell-permeant Hoechst 33342 (1:2 diluted in AIM-V medium, nuclear blue; ThermoFisher Scientific, Grand Island, NY, USA) and the live cell-impermeable propinium iodide (PI, 1:20 diluted in AIM-V medium) were added in a volume of 20 μI (Sigma-Aldrich). In compromised cells, PI could now diffuse across the plasma membrane. Live cell imaging was performed using the automated ImageXpress® imaging system under controlled environmental conditions (37° C. and 5% CO2). Images were taken from 9 sites per well at baseline and then every 30 min for 12h. After export with MetaXpress®, videos were edited with ImageJ (NIH) in a uniform manner. Nuclei were pseudo colored in cyan, PI-positive cells in red.
Live cell imaging over 12 h supported the neuroprotective effects of drugs. We selected indapamide and desipramine for live imaging studies.

[2] = Hydroxyl radical antioxidant capacity (HORAC) assay; format: biochemical; settings: vs 12.5 μM gallic acid (=1), 60 min
Description: In this assay, hydroxyl radicals generated by a Co(II)-mediated Fenton-like reaction oxidize fluorescein causing loss of fluorescence (Ou et al., J Argricultural Food Chemistry 50:2772-2777, 2002). The presence of an anti-oxidant reduces the loss of fluorescence and this can be monitored every 5 min over a period of 60 min with a Spectra Max Gemini XS plate reader (Molecular Devices, Sunnyvale, Calif., USA) and the software SoftMax Pro version 5. For monitoring fluorescence, we used an excitation wavelength of λ=485 nm and an emission wavelength of λ=520 nm.
The biochemical cell free hydroxyl radical antioxidant capacity (HORAC) assay investigates the prevention of hydroxyl radical mediated oxidation of to fluorescein in comparison to the strong anti-oxidant gallic acid. The generation of hydroxyl radicals by a cobalt-driven Fenton-like reaction oxidizes fluorescein with progressive loss of fluorescence. The presence of an anti-oxidant reduces the loss of fluorescence over time.
We compared the area under the curve of test compounds to that elicited by gallic acid to obtain the gallic acid equivalent (GAE).

human neurons [3] = assay: Iron (FeSO4) mediated neurotoxicity screening, MAP-2 positive neurons counted; format: cell-based; settings: for viability at 10 µM: Homo sapiens, Neuron, read-out: Drug % control (mean): number of neurons normalized to untreated control
Method in brief: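 Fetal human neurons (15-20 wk), plated with cytosine arabinoside, were pre-incubated 1 h with compounds (10 mM DMSO stocks) before FeSO4 at 25-50 μM final. Cells fixed a day later; MAP-2 immunostaining plus Hoechst nuclei imaged automatically, sites per well averaged; quadruplicates.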

human neurons [4] = assay: Mitochondrial damage to neurons induced by rotenone; format: cell-based; settings: rotenone 10 μM, drug 10 μM
Description: Human neurons were isolated from brain tissues of therapeutically aborted 15-20 week old fetuses, in accordance with ethics approval of the University of Calgary ethics committee, after written informed consent of the pregnant donors. Neurons were isolated as previously described (Vecil et al., 2000) brain specimens were washed in phosphate buffered saline (PBS) to remove blood, followed by removal of meninges. […] Thereafter, the digestion was stopped by addition of 4 ml fetal calf serum (FCS). The solution was filtered through a 132 μm filter and centrifuged (three times, 1,200 rpm, 10 min). Cells were cultured in feeding medium of minimal essential medium (MEM) supplemented with 10% fetal bovine serum (FBS), 1 μM sodium pyruvate, 10 μM glutamine, 1× non-essential amino acids, 0.1% dextrose and 1% penicillin/streptomycin (all culture supplements from Invitrogen, Burlington, Canada). […] For experiments, the neuron-enriched cultures were retrypsinized and cells were plated in poly-L-ornithine pre-coated 96-well plates at a density of 100,000 cells/well in 100 μl of the complete medium supplemented with cytosine arabinoside. […] All conditions were performed in quadruplicates. A day later cells were fixed using 4% paraformaldehyde (PFA) and stored in PBS in 4° C.
The iron stock solution was prepared using 27.8 mg iron(II) sulfate heptahydrate (FeSO4) (Sigma-Aldrich, Oakville, Canada), 10 μl of 17.8M sulfuric acid and 10 ml deionized distilled water. After filtering with a 0.2 μm filter, FeSO4 was added to cells in a final concentration of 25-50 μM in a volume of 50 μl medium to the cells. Rotenone was dissolved in dimethyl sulfoxide (DMSO) and used in a final concentration of 10 μM.

T-cells = assay: Proliferation of T-lymphocytes (3H-thymidine) in anti-CD3/anti-CD28 activated splenocytes; format: cell-based, mouse; settings: for inhibition at 10 µM: Mus musculus, T-cell, 72 h, read-out: mean reduction of 3H-thymidine incorporation (T-cell proliferation); for toxic effects in the T-cell proliferation test: data not shown
Description: A previously published protocol was used for isolating and activating T-cells (Keough et al., Nature Comm 7:11312, 2016). Spleens from female C57B16 mice were harvested and after mechanical dissociation the cell suspension was passed through a 70 μm cell strainer and separated by Ficoll gradient (1800 RPM, 30 min). Splenocytes were plated (2.5×10^5 cells in 100 μl/well) in anti-CD3 antibody coated 96-well plates (1,000 ng m1^−1 plate-bound anti-CD3 and 1,000 ng m1^−1 anti-CD28 suspended in media) to activate T-cells. Directly before plating, wells were treated with respective drugs in a final concentration of 10 μM. Cells were cultured in RPMI 1640 medium, supplemented with 10% FBS, 1 μM sodium pyruvate, 2 mM L-alanyl-L-glutamine, 1% penicillin/streptomycin, 1% HEPES and 0.05 mM 2-mercaptoethanol (all supplements were from Invitrogen). After 48 h, ^3H-thymidine was added in a concentration of 1 μCi per well, and cells were harvested after 24 h on filter mats. Mats were then evaluated for radioactivity (counts per minute) using a liquid scintillation counter.

mice = assay: Lysolecithin demyelination of the spinal cord in aging 8-10 months old mice; format: in vivo, mouse; settings: 20 mg/kg IP immediately after lysolecithin and once per day for 2 days; day 3
From the text: Active demyelinating lesions can be found in MS specimens of all ages sampled, including late in life. Indeed, age has been identified to be a factor in the dreaded conversion from relapsing-remitting into secondary progressive MS. Contributing causes for aging-associated worsening in MS that drives progression include the steady loss of axons with longevity of disease, or the deficient repair of myelin in older compared to younger patients. We tested the hypothesis that the same demyelinating injury is more devastating to axons and myelin as the individual ages.
We thus treated aging 8-10 months old mice with intraperitoneal indapamide (20 mg/kg) immediately after lysolecithin demyelination, and once per day at 20 mg/kg for the next 2 days. Spinal cord tissues were taken for histology.

[5] = drug 10 μM 1 h before FeSO4 25 or 50 μM, MAP-2 neurons after 24 h
[6] = drug 10 μM, vs activated splenocytes

Row | Molecule | viability at 10 µM (human neurons [3]; [5]) [%] | inhibition at 10 µM (T-cells; [6]) [%] | also measured
1 | CNCCCN1c2ccccc2CCc2ccccc21 [DESIPRAMINE HYDROCHLORIDE] | 84.4 | 92.2 | number of PI-positive neurons in response to FeSO4 over 12 h (human neurons [1]): significantly attenuated; mean HORAC-GAE (gallic acid equivalents) [2]: -5.00; protection from FeSO4-mediated neurotoxicity (in words) (human neurons [3]): strong protection; neurotoxicity by rotenone (mitochondrial damage) (human neurons [4]): active against damage to the mitochondrial respiratory chain
2 | CC12CC3CC(C)(C1)CC(N)(C3)C2 [MEMANTINE HYDROCHLORIDE] | 53.2 | – | increase of T-cell proliferation (T-cells; [6]): 17.5%
3 | OC(c1cc(C(F)(F)F)nc2c(C(F)(F)F)cccc12)C1CCCCN1 (stereo not drawn) [MEFLOQUINE] | 47 | 62.3 | –
4 | CC(CN(C)C)CN1c2ccccc2CCc2ccccc21 (stereo not drawn) [TRIMIPRAMINE MALEATE] | 88.6 | 54 | mean HORAC-GAE (gallic acid equivalents) [2]: 4.2; neurotoxicity by rotenone (mitochondrial damage) (human neurons [4]): reduced neurotoxicity
5 | O=C1c2c(O)ccc(O)c2C(=O)c2c(NCCNCCO)ccc(NCCNCCO)c21 [MITOXANTHRONE HYDROCHLORIDE] | 52.5 | 99.7 | toxic effects in the T-cell proliferation test (T-cells; drug 10 μM): toxic effects
6 | TRIMEPRAZINE TARTRATE | – | – | Drug % control (mean): number of neurons normalized to untreated control (human neurons [3]; [5]): 73.31%; mean reduction of 3H-thymidine incorporation (T-cell proliferation) (T-cells; [6]): 43.3%
7 | CN(C)CCCN1c2ccccc2CCc2ccccc21 [IMIPRAMINE HYDROCHLORIDE] | 106 | 66.4 | –
8 | OCCN(CCO)c1nc(N2CCCCC2)c2nc(N(CCO)CCO)nc(N3CCCCC3)c2n1 [DIPYRIDAMOLE] | 165 | 89.3 | –
9 | N#Cc1ccc2c(c1)N(CCCN1CCC(O)CC1)c1ccccc1S2 [PERICIAZINE] | 82 | 28 | protection from FeSO4-mediated neurotoxicity (in words) (human neurons [3]; drug 10 μM, human neurons): strong protection; neurotoxicity by rotenone (mitochondrial damage) (human neurons [4]): reduced neurotoxicity
10 | CC1Cc2ccccc2N1NC(=O)c1ccc(Cl)c(S(N)(=O)=O)c1 (stereo not drawn) [INDAPAMIDE] | 126 | – | number of PI-positive neurons in response to FeSO4 over 12 h (human neurons [1]): significantly attenuated; mean HORAC-GAE (gallic acid equivalents) [2]: 4.1; axonal loss (mice): less axonal loss; lesional malondialdehyde level (mice): reduced lesional malondialdehyde; volume of demyelination (mice): smaller volume of demyelination; protection from FeSO4-mediated neurotoxicity (in words) (human neurons [3]; drug 10 μM, human neurons): strong neuroprotective effects against iron toxicity; neurotoxicity by rotenone (mitochondrial damage) (human neurons [4]): reduced neurotoxicity; also recorded: active against damage to the mitochondrial respiratory chain; effect on T-lymphocyte proliferation (in words) (T-cells): no effect on T-lymphocyte proliferation
11 | CC(CN1c2ccccc2Sc2ccccc21)N(C)C (stereo not drawn) [PROMETHAZINE HYDROCHLORIDE] | 105 | 74.6 | neurotoxicity by rotenone (mitochondrial damage) (human neurons [4]): reduced neurotoxicity
12 | CN(C)CCCN1c2ccccc2Sc2ccc(Cl)cc21 [CHLORPROMAZINE] | 98.8 | 99.4 | toxic effects in the T-cell proliferation test (T-cells; drug 10 μM): toxic effects
13 | N[C@@H](C(=O)N[C@@H]1C(=O)N2C(C(=O)O)=C(Cl)CS[C@H]12)c1ccccc1 [CEFACLOR] | 89.9 | 23 | –
14 | CC(CCc1ccccc1)NCC(O)c1ccc(O)c(C(N)=O)c1 (stereo not drawn) [LABETALOL HYDROCHLORIDE] | 54.4 | 26.8 | neurotoxicity by rotenone (mitochondrial damage) (human neurons [4]; HYDROCHLORIDE): reduced neurotoxicity; also recorded: active against damage to the mitochondrial respiratory chain
15 | O=c1n(CCCN2CCN(c3cccc(Cl)c3)CC2)nc2ccccn12 [TRAZODONE HYDROCHLORIDE] | 25.9 | – | –
16 | CC(C)(Oc1ccc(CCNC(=O)c2ccc(Cl)cc2)cc1)C(=O)O [BEZAFIBRATE] | 35.5 | – | –
17 | C#C[C@]1(O)CC[C@H]2[C@@H]3CCC4=Cc5oncc5C[C@]4(C)[C@H]3CC[C@@]21C [DANAZOL] | 4.37 | – | –
18 | S=c1nc[nH]c2nc[nH]c12 [MERCAPTOPURINE] | 1.73 | – | –
19 | COc1ccc2cc([C@H](C)C(=O)O)ccc2c1 [NAPROXEN(+)] | – | – | Drug % control (mean): number of neurons normalized to untreated control (human neurons [3]; [5]): 25.64%
20 | NS(=O)(=O)c1cc(C2(O)NC(=O)c3ccccc32)ccc1Cl (stereo not drawn) [CHLORTHALIDONE] | 7.66 | – | –
21 | N[C@@H](Cc1ccc(O)c(O)c1)C(=O)O [LEVODOPA] | 81.2 | – | –
22 | CN1CCN(C2=Nc3cc(Cl)ccc3Nc3ccccc32)CC1 [CLOZAPINE] | 101 | – | –
23 | NC(=O)N1c2ccccc2C=Cc2ccccc21 [CARBAMAZEPINE] | 13.3 | – | –
24 | O=C(CCCN1CCC(O)(c2ccc(Cl)cc2)CC1)c1ccc(F)cc1 [HALOPERIDOL] | 6.12 | – | –
25 | Cn1c(=O)c2[nH]cnc2n(C)c1=O [THEOPHYLLINE] | – | – | viability at 10 µM (human neurons [3]; 24 h): 23.3%
26 | CC(C)C[C@H](CN)CC(=O)O [PREGABALIN] | – | – | viability at 10 µM (human neurons [3]; 24 h): 47.8%
27 | CCCCCCc1ccc(O)cc1O [HEXYLRESORCINOL] | 71.5 | – | –
